In one data set the test system is Aβtotal. Nature of the data set: Screening for γ-secretase-modulating activity: Aβtotal in supernatant of SKNBE2 cells carrying hAPP 695 wild type (Alphalisa). Type of data set: cell-based, human. Particulars: overnight incubation, Alphalisa on supernatant. In short, it runs like this: (§1)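 Secreted Aβ42 (C-terminal/N-terminal antibody pair) and Aβtotal (N-terminal/mid-region pair) were quantified by AlphaLISA after overnight compound exposure of wild-type hAPP 695 SKNBE2 cells at 37 °C. Values expressed relative to compound-free maximum, with IC50 from nonlinear 4-parameter regression.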

The subject of the next data set is Aβ42. As to the kind of experiment: Screening for γ-secretase-modulating activity: Aβ42 in supernatant of SKNBE2 cells carrying hAPP 695 wild type (Alphalisa). Particulars: overnight incubation, Alphalisa on supernatant. Type of data set: cell-based, human. The gist of the method:
as §1
On the technique in general: Alpha assays give light when donor and acceptor beads are brought close together.

Where [1] appears, read: SKNBE2 human neuroblastoma cells carrying hAPP 695 wild type.
Where [2] appears, read: Homo sapiens, SKNBE2, SKNBE2 human neuroblastoma cells carrying hAPP 695 wild type.

A word on the IC50: it is the point on the concentration scale where inhibition reaches its midpoint. A high value points to a need for much substance. The term melting point denotes the temperature of the solid-liquid transition. The compound `COc1c(C#N)ccc2[nH]c(-c3cn4c(n3)C(c3c(C)cccc3F)OCC4)cc12` (stereo not drawn) [Compound 139, 2-[8-(2-fluoro-6-methylphenyl)-5,6-dihydro-8H-imidazo[2,1-c][1,4]oxazin-2-yl]-4-methoxy-1H-indole-5-carbonitrile] registered a melting point of 296.2 °C. In addition, in the data set on Aβtotal (setting [1]), the concentration for half-maximal inhibition (IC50) was more than 10 µM. Moreover, in the data set with Aβ42 (setting [1]), the IC50 came out at 1.62 µM.
Turning to `Cc1cc(F)ccc1C1OCCn2nc(-c3cc4nc(-c5cnn(C)c5)ccc4[nH]3)nc21` (stereo not drawn) [Compound 106, 8-(4-fluoro-2-methylphenyl)-5,6-dihydro-2-[5-(1-methyl-1H-pyrazol-4-yl)-1H-pyrrolo[3,2-b]pyridin-2-yl]-8H-[1,2,4]triazolo[5,1-c][1,4]oxazine], the melting point is 263.8 °C. Moreover, the IC50 in the data set on Aβtotal (setting [2]) was more than 10 µM. The compound also registered an IC50 with Aβ42 (setting [2]) of 0.447 µM.
For the compound `N#Cc1ccc2[nH]c(-c3nc4n(n3)CCCC4c3ccccc3Cl)cc2c1` (stereo not drawn) [Compound 62, 2-[8-(2-chlorophenyl)-5,6,7,8-tetrahydro[1,2,4]triazolo[1,5-a]pyridin-2-yl]-1H-indole-5-carbonitrile], the melting point came to 208.6 °C. The compound further registered an IC50 with Aβtotal (setting [2]) of more than 10 µM. The compound further returned an IC50 in the data set with Aβ42 (setting [2]) of 0.245 µM.
For `Cc1cc(-c2ccc3[nH]c(-c4nc5n(n4)CCCC5c4ccc(F)cc4C)cc3n2)ccn1` (stereo not drawn) [Compound 33, 8-(4-fluoro-2-methylphenyl)-5,6,7,8-tetrahydro-2-[5-(2-methyl-4-pyridinyl)-1H-pyrrolo[3,2-b]pyridin-2-yl]-[1,2,4]triazolo[1,5-a]pyridine] the same measures were 267.2 °C, more than 10 µM and 0.049 µM.
For `COc1ccccc1C1CCCn2nc(-c3cc4cc(C#N)ccc4[nH]3)nc21` (stereo not drawn) [Compound 19, 2-[5,6,7,8-tetrahydro-8-(2-methoxyphenyl)[1,2,4]triazolo[1,5-a]pyridin-2-yl]-1H-indole-5-carbonitrile] the same measures were 139.6 °C, more than 10 µM and 0.661 µM.
Take `Cc1cc(F)ccc1C1CCCn2nc(-c3cc4nc(-c5cnn(C)c5)ccc4[nH]3)nc21` (stereo not drawn) [Compound 32, 8-(4-fluoro-2-methylphenyl)-5,6,7,8-tetrahydro-2-[5-(1-methyl-1H-pyrazol-4-yl)-1H-pyrrolo[3,2-b]pyridin-2-yl]-[1,2,4]triazolo[1,5-a]pyridine]: the melting point was found to be 281.7 °C. Also, the IC50 in the data set with Aβtotal (setting [2]) is more than 10 µM. Moreover, the IC50 with Aβ42 (setting [1]) is 0.148 µM.
Regarding `Cc1ccccc1C1CCCn2nc(-c3cc4cc(-c5cnn(C)c5)ccc4[nH]3)nc21` (stereo not drawn) [Compound 31, 5,6,7,8-tetrahydro-8-(2-methylphenyl)-2-[5-(1-methyl-1H-pyrazol-4-yl)-1H-indol-2-yl]-[1,2,4]triazolo[1,5-a]pyridine], the melting point is 223.8 °C. The IC50 in the data set with Aβtotal (setting [2]) is more than 10 µM. It took 0.076 µM to reach half-maximal inhibition with Aβ42 (setting [2]) (IC50).
Consider `Cc1cc(F)ccc1C1OCCn2nc(-c3cc4cc(C#N)ccc4[nH]3)nc21` (single isomer, unassigned) [Compound 97, 2-[8-(4-fluoro-2-methylphenyl)-5,6-dihydro-8H-[1,2,4]triazolo[5,1-c][1,4]oxazin-2-yl]-1H-indole-5-carbonitrile], for which the melting point came out at 255 °C. The same compound registered an IC50 with Aβtotal (setting [2]) of more than 10 µM. The IC50 with Aβ42 (setting [1]) came to 0.219 µM.
Compound `N#Cc1ccc2[nH]c(-c3nc4n(n3)CCCC4c3ccccc3C(F)(F)F)cc2n1` (stereo not drawn) [Compound 26, 2-[5,6,7,8-tetrahydro-8-[2-(trifluoromethyl)phenyl][1,2,4]triazolo[1,5-a]pyridin-2-yl]-1H-pyrrolo[3,2-b]pyridine-5-carbonitrile] returned a melting point of 272.3 °C. Also, the IC50 in the data set with Aβtotal (setting [2]) is more than 10 µM. The compound further came in with an IC50 with Aβ42 (setting [2]) of 0.331 µM.
Compound `COc1c(C#N)ccc2[nH]c(-c3cn4c(n3)C(c3ccc(F)cc3C)OCC4)cc12` (stereo not drawn) [Compound 48, 2-[8-(4-fluoro-2-methylphenyl)-5,6-dihydro-8H-imidazo[2,1-c][1,4]oxazin-2-yl]-4-methoxy-1H-indole-5-carbonitrile] registered a melting point of 244.4 °C. The compound also gave an IC50 in the data set on Aβtotal (setting [1]) of more than 10 µM. The same compound displayed an IC50 with Aβ42 (setting [1]) of 1.02 µM.
Take `COc1c(C#N)ccc2[nH]c(-c3nc4n(n3)CCOC4c3ccc(F)c(Cl)c3)cc12` (stereo not drawn) [Compound 157, 2-[8-(3-chloro-4-fluorophenyl)-5,6-dihydro-8H-[1,2,4]triazolo[5,1-c][1,4]oxazin-2-yl]-4-methoxy-1H-indole-5-carbonitrile]: the melting point worked out at 265.5 °C. In the data set on Aβtotal (setting [1]), this compound displayed an IC50 of more than 10 µM. Also, in the data set on Aβ42 (setting [1]), the IC50 stood at 7.59 µM.
For `Cc1cn(-c2ccc3[nH]c(-c4nc5n(n4)CCOC5c4ccc(F)cc4C)cc3c2)cn1` (single isomer, unassigned) [Compound 110, 8-(4-fluoro-2-methylphenyl)-5,6-dihydro-2-[5-(4-methyl-1H-imidazol-1-yl)-1H-indol-2-yl]-8H-[1,2,4]triazolo[5,1-c][1,4]oxazine] the same measures were 278 °C, more than 10 µM and 0.036 µM.
Turning to `COc1c(C#N)ccc2[nH]c(-c3nc4n(n3)CCOC4c3ccc(F)c(Cl)c3)cc12` (stereo not drawn) [Compound 156, 2-[8-(3-chloro-4-fluorophenyl)-5,6-dihydro-8H-[1,2,4]triazolo[5,1-c][1,4]oxazin-2-yl]-4-methoxy-1H-indole-5-carbonitrile], the melting point turned out to be 267.3 °C. This compound also showed an IC50 in the data set with Aβtotal (setting [1]) of more than 10 µM. This compound registered an IC50 with Aβ42 (setting [1]) of 0.085 µM.
As for `COc1ccccc1C1CCCn2cc(-c3cc4cc(C#N)ccc4[nH]3)nc21` (stereo not drawn) [Compound 67, 2-[5,6,7,8-tetrahydro-8-(2-methoxyphenyl)imidazo[1,2-a]pyridin-2-yl]-1H-indole-5-carbonitrile], the melting point amounted to 251 °C. This compound yielded an IC50 with Aβtotal (setting [2]) of more than 10 µM. The IC50 in the data set with Aβ42 (setting [2]) was 0.501 µM.
In turn, `COc1c(C#N)ccc2[nH]c(-c3nc4n(n3)CCOC4c3ccc(F)cc3C)cc12` (stereo not drawn) [Compound 115, 2-[8-(4-fluoro-2-methylphenyl)-5,6-dihydro-8H-[1,2,4]triazolo[5,1-c][1,4]oxazin-2-yl]-4-methoxy-1H-indole-5-carbonitrile] yielded a melting point of 257.4 °C. The compound also showed an IC50 in the data set with Aβtotal (setting [1]) of more than 10 µM. For the same compound, the 50% inhibitory concentration (IC50) with Aβ42 (setting [1]) turned out to be 1.48 µM.
Compound `CCc1cc(F)ccc1C1OCCn2nc(-c3cc4cc(-n5cnc(C)c5)ccc4[nH]3)nc21` (stereo not drawn) [Compound 105, 8-(2-ethyl-4-fluorophenyl)-5,6-dihydro-2-[5-(4-methyl-1H-imidazol-1-yl)-1H-indol-2-yl]-8H-[1,2,4]triazolo[5,1-c][1,4]oxazine] had a melting point of 285.7 °C. Also, in the data set on Aβtotal (setting [2]), the IC50 is more than 10 µM. Besides, in the data set with Aβ42 (setting [2]), inhibition was half-maximal at 0.034 µM (IC50).
Take `COc1c(C#N)ccc2[nH]c(-c3cn4c(n3)C(c3ccccc3Cl)OCC4)cc12` (stereo not drawn) [Compound 51, 2-[8-(2-chlorophenyl)-5,6-dihydro-8H-imidazo[2,1-c][1,4]oxazin-2-yl]-4-methoxy-1H-indole-5-carbonitrile]: the melting point stood at 255.6 °C. This compound showed an IC50 in the data set with Aβtotal (setting [1]) of more than 10 µM. In the data set on Aβ42 (setting [1]), the IC50 was 0.708 µM.
In turn, `COc1c(C#N)ccc2[nH]c(-c3nc4n(n3)CCOC4c3c(C)cccc3F)cc12` (stereo not drawn) [Compound 141, 2-[8-(2-fluoro-6-methylphenyl)-5,6-dihydro-8H-[1,2,4]triazolo[5,1-c][1,4]oxazin-2-yl]-4-methoxy-1H-indole-5-carbonitrile] showed a melting point of 244.4 °C. The IC50 in the data set on Aβtotal (setting [1]) was more than 10 µM. Besides, the midpoint of inhibition with Aβ42 (setting [1]), the IC50, lay at 0.028 µM.
In turn, `Cc1ccccc1C1CCCn2nc(-c3cc4nc(C#N)ccc4[nH]3)nc21` (stereo not drawn) [Compound 25, 2-[5,6,7,8-tetrahydro-8-(2-methylphenyl)[1,2,4]triazolo[1,5-a]pyridin-2-yl]-1H-pyrrolo[3,2-b]pyridine-5-carbonitrile] showed a melting point of 264.9 °C. In the data set on Aβtotal (setting [2]), this compound displayed an IC50 of more than 10 µM. The compound also displayed an IC50 in the data set with Aβ42 (setting [2]) of 0.398 µM.
Compound `Cc1cn(-c2ccc3[nH]c(-c4nc5n(n4)CCOC5c4cc(F)c(F)c(C)c4C)cc3c2)cn1` (stereo not drawn) [Compound 116, 8-(4,5-difluoro-2,3-dimethylphenyl)-5,6-dihydro-2-[5-(4-methyl-1H-imidazol-1-yl)-1H-indol-2-yl]-8H-[1,2,4]triazolo[5,1-c][1,4]oxazine] gave a melting point of 285.1 °C. In the data set with Aβtotal (setting [2]), this compound had an IC50 of more than 10 µM. In the data set with Aβ42 (setting [2]), inhibition was half-maximal at 0.033 µM (IC50).
For `N#Cc1ccc2cc(-c3nc4n(n3)CCCC4c3ccccc3C(F)(F)F)[nH]c2c1` (stereo not drawn) [Compound 61, 2-[5,6,7,8-tetrahydro-8-[2-(trifluoromethyl)phenyl][1,2,4]triazolo[1,5-a]pyridin-2-yl]-1H-indole-6-carbonitrile] the same measures were 175.7 °C, more than 10 µM and 3.98 µM.
For `Cc1cn(-c2ccc3[nH]c(-c4nc5n(n4)CCOC5c4cccc(F)c4C)cc3c2)cn1` (stereo not drawn) [Compound 36, 8-(3-fluoro-2-methylphenyl)-5,6-dihydro-2-[5-(4-methyl-1H-imidazol-1-yl)-1H-indol-2-yl]-8H-[1,2,4]triazolo[5,1-c][1,4]oxazine], in that order: 261.3 °C, more than 10 µM and 0.062 µM.
The compound `COc1c(C#N)ccc2[nH]c(-c3nc4n(n3)CCOC4c3c(C)cccc3F)cc12` (stereo not drawn) [Compound 142, 2-[8-(2-fluoro-6-methylphenyl)-5,6-dihydro-8H-[1,2,4]triazolo[5,1-c][1,4]oxazin-2-yl]-4-methoxy-1H-indole-5-carbonitrile] yielded a melting point of 244.8 °C. In the data set on Aβtotal (setting [1]), the half-maximal inhibitory concentration (IC50) is more than 10 µM. Further, 2.82 µM corresponded to half-maximal inhibition in the data set on Aβ42 (setting [1]) (IC50).
For `COc1c(C#N)ccc2[nH]c(-c3nc4n(n3)CCOC4c3cccc(F)c3C)cc12` (stereo not drawn) [Compound 150, 2-[8-(3-fluoro-2-methylphenyl)-5,6-dihydro-8H-[1,2,4]triazolo[5,1-c][1,4]oxazin-2-yl]-4-methoxy-1H-indole-5-carbonitrile] the same measures were 238.2 °C, more than 10 µM and 2.19 µM.

The values above are taken from patent publication US9115143B2, “Substituted indole derivatives as gamma secretase modulators” (Janssen Pharmaceuticals, Inc., priority 2011, dated 2015).
